Measurements as given in ChEMBL document CHEMBL2203234, “Optimisation of imidazole compounds as selective TAAR1 agonists: discovery of RO5073012” (Bioorg Med Chem Lett, 2012).

Assays:
[1] = biological target: C-X-C chemokine receptor type 4 (Homo sapiens) (UniProt P61073); experiment: Inhibition of human CXCR4 receptor at 10 uM by CEREP assay
[2] = biological target: C-C chemokine receptor type 1 (Homo sapiens) (UniProt P32246); experiment: Inhibition of human CCR1 receptor at 10 uM by CEREP assay
[3] = biological target: Growth hormone secretagogue receptor type 1 (Homo sapiens) (UniProt Q92847); experiment: Inhibition of human Ghrelin receptor at 10 uM by CEREP assay
Chain of Growth hormone secretagogue receptor type 1 (Homo sapiens) (Q92847 whole entry): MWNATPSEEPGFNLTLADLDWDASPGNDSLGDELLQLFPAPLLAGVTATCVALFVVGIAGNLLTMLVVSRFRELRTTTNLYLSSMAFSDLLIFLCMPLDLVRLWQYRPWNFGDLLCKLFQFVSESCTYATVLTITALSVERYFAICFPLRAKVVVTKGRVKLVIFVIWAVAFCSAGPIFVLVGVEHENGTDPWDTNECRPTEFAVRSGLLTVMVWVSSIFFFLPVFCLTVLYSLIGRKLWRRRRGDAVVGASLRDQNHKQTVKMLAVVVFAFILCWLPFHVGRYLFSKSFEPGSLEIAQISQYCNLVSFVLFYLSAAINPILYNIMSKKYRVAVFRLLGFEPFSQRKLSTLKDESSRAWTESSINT

[4] = biological target: Leukotriene B4 receptor 1 (Homo sapiens) (UniProt Q15722); experiment: Inhibition of human LTB4 receptor at 10 uM by CEREP assay
[5] = biological target: Melanocortin receptor 4 (Homo sapiens) (UniProt P32245); experiment: Inhibition of human MC4 receptor at 10 uM by CEREP assay
Chain of Melanocortin receptor 4 (Homo sapiens) (P32245 whole entry): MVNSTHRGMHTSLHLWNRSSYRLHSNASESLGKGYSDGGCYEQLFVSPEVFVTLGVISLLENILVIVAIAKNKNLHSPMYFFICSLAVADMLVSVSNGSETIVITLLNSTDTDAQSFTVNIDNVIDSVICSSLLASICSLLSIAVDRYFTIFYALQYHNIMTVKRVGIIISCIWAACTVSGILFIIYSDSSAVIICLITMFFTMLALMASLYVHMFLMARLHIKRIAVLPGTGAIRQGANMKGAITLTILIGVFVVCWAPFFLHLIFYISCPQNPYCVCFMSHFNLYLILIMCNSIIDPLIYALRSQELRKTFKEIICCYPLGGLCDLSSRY

[6] = biological target: Substance-K receptor (Homo sapiens) (UniProt P21452); experiment: Inhibition of human Nk2 receptor at 10 uM by CEREP assay
Chain of Substance-K receptor (Homo sapiens) (P21452 whole entry): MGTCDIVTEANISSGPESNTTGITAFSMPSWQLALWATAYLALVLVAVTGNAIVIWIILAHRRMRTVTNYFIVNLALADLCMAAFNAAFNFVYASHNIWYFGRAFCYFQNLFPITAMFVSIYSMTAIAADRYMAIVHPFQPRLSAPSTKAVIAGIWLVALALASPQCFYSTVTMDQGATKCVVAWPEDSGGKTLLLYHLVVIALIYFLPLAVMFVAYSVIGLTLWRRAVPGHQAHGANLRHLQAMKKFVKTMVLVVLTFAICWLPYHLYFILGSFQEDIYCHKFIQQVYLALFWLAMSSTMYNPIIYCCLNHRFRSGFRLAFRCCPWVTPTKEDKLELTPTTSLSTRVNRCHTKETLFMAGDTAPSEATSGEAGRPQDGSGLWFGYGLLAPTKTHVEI

[7] = biological target: Pituitary adenylate cyclase-activating polypeptide type I receptor (Homo sapiens) (UniProt P41586); experiment: Inhibition of human PAC1 receptor at 10 uM by CEREP assay
[8] = biological target: Thromboxane A2 receptor (Homo sapiens) (UniProt P21731); experiment: Inhibition of human TXA2/PGH2 receptor at 10 uM by CEREP assay
Chain of Thromboxane A2 receptor (Homo sapiens) (P21731 whole entry): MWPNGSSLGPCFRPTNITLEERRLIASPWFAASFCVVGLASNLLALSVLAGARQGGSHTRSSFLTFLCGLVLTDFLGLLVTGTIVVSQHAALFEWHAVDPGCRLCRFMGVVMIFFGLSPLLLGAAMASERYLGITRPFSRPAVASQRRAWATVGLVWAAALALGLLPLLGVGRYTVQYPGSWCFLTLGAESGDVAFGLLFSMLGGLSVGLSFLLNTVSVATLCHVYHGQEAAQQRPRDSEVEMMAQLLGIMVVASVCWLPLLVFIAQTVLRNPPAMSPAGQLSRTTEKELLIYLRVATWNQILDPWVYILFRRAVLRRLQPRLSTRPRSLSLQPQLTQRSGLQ

[9] = Inhibition of P2Y receptor at 10 uM by CEREP assay
[10] = biological target: 5-hydroxytryptamine receptor 1B (Homo sapiens) (UniProt P28222); experiment: Inhibition of 5-HT1B receptor at 10 uM by CEREP assay
[11] = biological target: 5-hydroxytryptamine receptor 4 (Homo sapiens) (UniProt Q13639); experiment: Inhibition of human 5-HT4 receptor at 10 uM by CEREP assay
[12] = biological target: 5-hydroxytryptamine receptor 7 (Homo sapiens) (UniProt P34969); experiment: Inhibition of human 5-HT7 receptor at 10 uM by CEREP assay
[13] = biological target: Thyrotropin-releasing hormone receptor (Homo sapiens) (UniProt P34981); experiment: Inhibition of TRH receptor at 10 uM by CEREP assay
Chain of Thyrotropin-releasing hormone receptor (Homo sapiens) (P34981 whole entry): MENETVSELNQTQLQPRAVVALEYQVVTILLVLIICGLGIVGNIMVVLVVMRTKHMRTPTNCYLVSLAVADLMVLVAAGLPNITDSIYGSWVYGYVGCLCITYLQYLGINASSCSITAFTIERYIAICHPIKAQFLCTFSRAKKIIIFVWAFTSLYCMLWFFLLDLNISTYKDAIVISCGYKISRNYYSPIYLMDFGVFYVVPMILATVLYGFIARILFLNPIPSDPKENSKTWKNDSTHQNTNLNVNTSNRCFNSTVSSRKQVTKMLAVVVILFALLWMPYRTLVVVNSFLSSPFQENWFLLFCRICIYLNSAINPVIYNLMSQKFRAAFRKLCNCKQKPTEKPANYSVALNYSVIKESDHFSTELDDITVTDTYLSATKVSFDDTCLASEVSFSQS

[14] = Inhibition of K-ATP channel at 10 uM by CEREP assay
[15] = Inhibition of K+v channel at 10 uM by CEREP assay
[16] = Inhibition of Na+ channel site 2 at 10 uM by CEREP assay
[17] = Inhibition of Cl- channel at 10 uM by CEREP assay
[18] = Inhibition of Guanylyl cyclase at 10 uM by CEREP assay
[19] = biological target: T1, Trace amine-associated receptor 1 (Homo sapiens, UniProt Q96RJ0); experiment: Displacement of (S)-4-(2,4-difluorophenyl-3-tritio) -4,5-dihydro-2-oxazolamine from human TAAR1 receptor expressed in HEK293 cells after 90 mins by beta counting analysis; format: cell-based
T1 sequence (Q96RJ0 whole entry): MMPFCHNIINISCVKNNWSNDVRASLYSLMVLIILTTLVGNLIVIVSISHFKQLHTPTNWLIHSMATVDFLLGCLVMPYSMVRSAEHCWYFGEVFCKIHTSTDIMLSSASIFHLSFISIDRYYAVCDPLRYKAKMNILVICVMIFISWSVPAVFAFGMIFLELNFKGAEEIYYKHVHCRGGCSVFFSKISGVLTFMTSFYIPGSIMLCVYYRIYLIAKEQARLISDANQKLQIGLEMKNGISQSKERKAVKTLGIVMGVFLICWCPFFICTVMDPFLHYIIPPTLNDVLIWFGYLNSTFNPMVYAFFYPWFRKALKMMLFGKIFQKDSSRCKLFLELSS

[20] = Cmax in mouse at 7.1 mg/kg, po; format: ADME, organism-based; parameters: dose 7.1 mg/kg, route oral; conditions: in vivo
[21] = Half life in mouse at 7.1 mg/kg, po; format: ADME, organism-based; parameters: dose 7.1 mg/kg, route oral; conditions: in vivo
[22] = species: Homo sapiens; experiment: Inhibition of human AMPA receptor at 10 uM by CEREP assay
[23] = biological target: Galanin receptor type 2 (Homo sapiens) (UniProt O43603); experiment: Inhibition of human GAL2 receptor at 10 uM by CEREP assay
Chain of Galanin receptor type 2 (Homo sapiens) (O43603 whole entry): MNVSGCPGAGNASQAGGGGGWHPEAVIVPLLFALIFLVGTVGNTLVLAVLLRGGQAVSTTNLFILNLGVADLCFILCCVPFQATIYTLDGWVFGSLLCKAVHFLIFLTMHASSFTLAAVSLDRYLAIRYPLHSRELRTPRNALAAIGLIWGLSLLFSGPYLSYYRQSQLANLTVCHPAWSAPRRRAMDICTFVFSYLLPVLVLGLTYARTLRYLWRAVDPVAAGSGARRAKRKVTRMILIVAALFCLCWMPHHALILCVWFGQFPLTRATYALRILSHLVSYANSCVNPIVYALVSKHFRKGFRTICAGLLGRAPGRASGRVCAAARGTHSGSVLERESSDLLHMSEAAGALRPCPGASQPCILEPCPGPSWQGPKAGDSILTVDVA

[24] = biological target: Endothelin-1 receptor (Homo sapiens) (UniProt P25101); experiment: Inhibition of human ETA receptor at 10 uM by CEREP assay
[25] = biological target: D(1A) dopamine receptor (Homo sapiens) (UniProt P21728); experiment: Inhibition of human D1 receptor at 10 uM by CEREP assay
Chain of D(1A) dopamine receptor (Homo sapiens) (P21728 whole entry): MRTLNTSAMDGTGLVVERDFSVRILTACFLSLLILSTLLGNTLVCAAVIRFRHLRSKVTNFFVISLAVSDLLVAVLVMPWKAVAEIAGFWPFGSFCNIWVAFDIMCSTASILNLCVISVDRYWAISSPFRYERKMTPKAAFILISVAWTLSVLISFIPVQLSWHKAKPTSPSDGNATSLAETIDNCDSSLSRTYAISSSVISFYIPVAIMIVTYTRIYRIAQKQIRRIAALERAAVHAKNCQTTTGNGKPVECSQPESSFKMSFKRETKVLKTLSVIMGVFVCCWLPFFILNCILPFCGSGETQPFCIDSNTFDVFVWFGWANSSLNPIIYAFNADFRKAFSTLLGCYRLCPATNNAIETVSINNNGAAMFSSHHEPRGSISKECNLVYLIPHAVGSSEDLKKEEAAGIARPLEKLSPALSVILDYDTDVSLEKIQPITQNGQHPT

[26] = biological target: Cholecystokinin receptor type A (Homo sapiens) (UniProt P32238); experiment: Inhibition of human CCKA receptor at 10 uM by CEREP assay
Chain of Cholecystokinin receptor type A (Homo sapiens) (P32238 whole entry): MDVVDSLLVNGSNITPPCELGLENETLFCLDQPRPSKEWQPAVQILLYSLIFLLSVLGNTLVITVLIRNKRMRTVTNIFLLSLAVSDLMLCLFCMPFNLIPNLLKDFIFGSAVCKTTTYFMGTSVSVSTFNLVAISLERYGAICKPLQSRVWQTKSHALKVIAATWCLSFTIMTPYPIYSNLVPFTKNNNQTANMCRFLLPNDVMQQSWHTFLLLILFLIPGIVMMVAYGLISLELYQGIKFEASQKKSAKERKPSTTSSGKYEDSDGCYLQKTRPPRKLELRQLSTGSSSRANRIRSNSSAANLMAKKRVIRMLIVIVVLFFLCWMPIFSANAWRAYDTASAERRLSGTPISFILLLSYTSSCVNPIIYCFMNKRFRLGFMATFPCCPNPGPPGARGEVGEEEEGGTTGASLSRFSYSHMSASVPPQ

[27] = biological target: Cannabinoid receptor 2 (Homo sapiens) (UniProt P34972); experiment: Inhibition of human CB2 receptor at 10 uM by CEREP assay
Chain of Cannabinoid receptor 2 (Homo sapiens) (P34972 whole entry): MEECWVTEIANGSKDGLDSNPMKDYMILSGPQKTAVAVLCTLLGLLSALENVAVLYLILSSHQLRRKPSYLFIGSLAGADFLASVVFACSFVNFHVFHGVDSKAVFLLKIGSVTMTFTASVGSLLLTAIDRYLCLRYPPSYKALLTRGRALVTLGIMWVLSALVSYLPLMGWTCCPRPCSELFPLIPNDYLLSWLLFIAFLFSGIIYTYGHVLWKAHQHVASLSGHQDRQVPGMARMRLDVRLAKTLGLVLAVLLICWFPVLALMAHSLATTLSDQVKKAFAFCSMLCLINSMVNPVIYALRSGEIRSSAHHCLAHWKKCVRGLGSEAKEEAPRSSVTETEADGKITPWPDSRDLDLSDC

[28] = biological target: B2 bradykinin receptor (Homo sapiens) (UniProt P30411); experiment: Inhibition of human B2 receptor at 10 uM by CEREP assay
Chain of B2 bradykinin receptor (Homo sapiens) (P30411 whole entry): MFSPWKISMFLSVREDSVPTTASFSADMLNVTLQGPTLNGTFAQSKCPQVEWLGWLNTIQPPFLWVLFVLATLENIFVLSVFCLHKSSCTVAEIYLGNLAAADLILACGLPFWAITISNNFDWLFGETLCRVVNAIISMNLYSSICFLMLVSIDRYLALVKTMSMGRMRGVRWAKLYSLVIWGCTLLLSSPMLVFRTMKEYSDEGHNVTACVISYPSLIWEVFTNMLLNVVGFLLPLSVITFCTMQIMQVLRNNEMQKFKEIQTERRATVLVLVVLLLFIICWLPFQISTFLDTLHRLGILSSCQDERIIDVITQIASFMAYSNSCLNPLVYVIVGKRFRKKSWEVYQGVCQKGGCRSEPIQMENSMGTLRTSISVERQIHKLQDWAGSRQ

[29] = biological target: Beta-2 adrenergic receptor (Homo sapiens) (UniProt P07550); experiment: Inhibition of human beta 2 adrenergic receptor at 10 uM by CEREP assay
Chain of Beta-2 adrenergic receptor (Homo sapiens) (P07550 whole entry, looked up): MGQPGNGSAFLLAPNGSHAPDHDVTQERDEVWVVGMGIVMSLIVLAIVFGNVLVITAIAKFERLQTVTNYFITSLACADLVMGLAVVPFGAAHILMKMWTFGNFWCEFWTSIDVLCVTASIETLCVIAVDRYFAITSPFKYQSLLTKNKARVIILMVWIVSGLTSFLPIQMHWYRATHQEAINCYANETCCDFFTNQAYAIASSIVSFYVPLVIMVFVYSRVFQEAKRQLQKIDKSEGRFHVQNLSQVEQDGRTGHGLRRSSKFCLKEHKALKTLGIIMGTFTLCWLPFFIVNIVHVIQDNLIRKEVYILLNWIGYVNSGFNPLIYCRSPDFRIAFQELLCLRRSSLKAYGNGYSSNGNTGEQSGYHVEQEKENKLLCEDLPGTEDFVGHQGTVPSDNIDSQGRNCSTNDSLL

[30] = Inhibition of alpha 2 adrenergic receptor at 10 uM by CEREP assay

Chain of C-X-C chemokine receptor type 4 (Homo sapiens) (P61073 whole entry): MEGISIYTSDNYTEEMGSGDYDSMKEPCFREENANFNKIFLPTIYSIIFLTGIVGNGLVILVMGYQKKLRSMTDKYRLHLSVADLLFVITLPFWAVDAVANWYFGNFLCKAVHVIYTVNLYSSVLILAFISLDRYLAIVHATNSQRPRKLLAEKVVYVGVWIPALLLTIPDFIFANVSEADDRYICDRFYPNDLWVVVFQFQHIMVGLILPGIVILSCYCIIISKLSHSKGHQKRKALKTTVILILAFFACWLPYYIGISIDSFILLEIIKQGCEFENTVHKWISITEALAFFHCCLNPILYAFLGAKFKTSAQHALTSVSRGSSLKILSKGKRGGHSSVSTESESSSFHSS

**Q.** What does the source list for CCc1cccc(CC)c1Cc1ncc[nH]1?
**A.** inhibition [1]: 11%; inhibition [2]: -1%; inhibition [3]: 3%; inhibition [4]: 5%; inhibition [5]: -4%; inhibition [6]: 3%; inhibition [7]: 21%; inhibition [8]: 7%; inhibition [9]: 1%; inhibition [10]: 18%; inhibition [11]: 8%; inhibition [12]: 54%; inhibition [13]: 0%; inhibition [14]: 7%; inhibition [15]: -1%; inhibition [16]: 22%; inhibition [17]: 3%; inhibition [18]: 1%; Ki [19]: 24 nM; Cmax [20]: 300 ng/mL; half-life [21]: 57 min; inhibition [22]: 11%; inhibition [23]: 4%; inhibition [24]: -3%; inhibition [25]: 8%; inhibition [26]: 4%; inhibition [27]: -4%; inhibition [28]: 3%; inhibition [29]: 6%; inhibition [30]: 73%
